Test results: US20190274974A1, “Treatment of Pain Associated with Trigeminal Neuralgia” (priority 2011, published 2019)
“Also recorded” adds a separate entry of the source.

What was measured:
Format in all cases: in vivo, rat
BDNF-induced allodynia = assay: Mechanical allodynia induced by intrathecal administration of BDNF in healthy rats (von Frey filaments test)
Experimental: In a first part of this study, BDNF (0.3 ng in 25 μl of saline per rat) or saline (25 μl) was injected intrathecally in adult male rats slightly anesthetized with isoflurane (according to Mestre et al. (1994), J. Pharmacol. Toxicol. Meth., 32, 197-200), and animals were subjected to von Frey filaments test applied to hindpaws at various times thereafter.
In a second part of this study, tapentadol (3 or 10 mg/kg i.p.) or saline was administered to rats on the 7th day (Time=0 on abscissa) after intrathecal injection of BDNF (Time=C) as described above. Pressure threshold values were determined using von Frey filaments test applied to hindpaws.
In a first part of this study (A), reboxetine (10 mg/kg i.p.; mesylate, Ascent Scientific, Bristol, UK), tapentadol (10 mg/kg i.p.) or saline (0.5 ml i.p./rat) was injected on the 7th day after intrathecal administration of BDNF (0.3 ng in 25 μl of saline per rat). Pressure threshold values were determined at various times thereafter using von Frey filaments test applied to hindpaws.

[1] = test system: mRNA encoding ATF3, IL-6, BDNF and iNOS; assay: Real-time qRT-PCR of mRNA levels in ganglia and central tissues of CCI-ION rats; conditions: subchronic 10 mg/kg i.p. twice daily; ipsilateral trigeminal ganglion and spinal nucleus of the trigeminal nerve; day 20
[2] = test system: mRNA encoding ATF3, IL-6, BDNF and iNOS; assay: Real-time qRT-PCR of mRNA levels in ganglia and central tissues of CCI-SN rats; conditions: subchronic 10 mg/kg i.p. twice daily; ipsilateral DRG and dorsal quadrant of lumbar spinal cord; day 20
Experimental: Real-time qRT-PCR determinations were made on the 20th day after CCI-SN or sham operation. Saline or Tapentadol was administered at days 16-20 under treatment conditions according to Example 2 (subchronic treatment conditions). Rats were decapitated 4 h after the last injection on day 20, tissues were immediately dissected in the cold (0° C.) and processed for mRNA extraction and quantification as described by Latrémolière et al. (J. Neurosci. 2008, 28, 8489-8501).
mRNA levels are expressed with reference to transcript encoding the […] GaPDH (glyceraldehyde 3-phosphate dehydrogenase). Each bar is the mean±S.E.M. of 4-6 independent determinations.

CCI-SN rats = test system: CCI-SN rats
Experimental: Rats are anaesthetized with sodium pentobarbital (50 mg/kg i.p.). Unilateral CCI-SN is performed under direct visual control using a Zeiss microscope (10-25×) essentially as described by Bennett and Xie (G. J. Bennett et al., Pain, 33 (1988) 87-107).
Mechanical sensitivity is determined with a graded series of von Frey filaments (Bioseb, Bordeaux, France; bending force: 0.07-60.0 g). The stimuli are applied within the SN territory (midplantar surface of the left hindpaw) three times at the nerve-injured side (ipsilateral, left) and then at the contralateral side for a total of 6 applications of each filament per rat, always beginning with the filament producing the lowest force. The von Frey filaments are applied at least 3 seconds after the rats returned to their initial resting state. For each session, the complete series of von Frey filaments is tested in increasing force order. The minimal force filament causing a hindpaw withdrawal response allows determination of the mechanical response threshold. The 60 g filament is the cut-off threshold.
For studying the effects of acute treatment with tapentadol in CCI-SN rats, tapentadol (1, 3 and 10 mg/kg i.p.) or its vehicle (0.9% NaCl i. p.) was injected acutely 14 days after surgery. Sham-operated rats were treated in parallel. Pressure threshold values to trigger nocifensive responses to von Frey filaments application onto the plantar surface of ipsilateral hindpaw were determined at various times after acute injection of tapentadol or saline. Cut-off was fixed at 60 g pressure.
For studying the effects of subchronic treatment with tapentadol in CCI-SN rats, starting on day 16 (Time=D) after surgery, they received i.p. injections of tapentadol (10 mg/kg, twice daily, at 10:00 AM and 6:00 PM) or saline (at the same day times as the drug) for four days. On the following day (day 20 after surgery), both tapentadol- and saline-pretreated CCI-SN rats were i.p. injected with Tapentadol (10 mg/kg; Time=0) and then subjected to von Frey filaments'test applied to ipsilateral hindpaw for determination of pressure threshold values at various times thereafter.
In a second part of this study (B), unilateral chronic constriction injury to the sciatic nerve was performed two weeks before acute treatment with reboxetine (10 mg/kg i.p.), tapentadol (10 mg/kg i.p.) or saline (0.5 ml i.p./rat). Pressure threshold values were then determined at various times using von Frey filaments test applied to ipsilateral hindpaw.
Morphine (1, 3 and 10 mg/kg s.c.) or its vehicle (0.9% NaCl) was injected acutely 14 days after CCI-SN surgery. Sham-operated rats were treated in parallel. Pressure threshold values to trigger nocifensive responses to von Frey filaments application onto the plantar surface of ipsilateral hindpaw were determined at various times after acute injection of morphine or saline.
14 days after CCI-SN surgery, rats were injected with reboxetine (10 mg/kg i.p.) or its vehicle (0.9% NaCl) followed, 15 min later, by morphine (1 mg/kg s.c.) or its vehicle (0.9% NaCl) and subjected to von Frey filament tests for the following 4 hours. Sham-operated rats were treated in parallel.
The results are depicted in FIG. 11.

CC[C@@H](c1cccc(O)c1)[C@@H](C)CN(C)C [tapentadol, (−)-(1R,2R)-3-(3-dimethylamino-1-ethyl-2-methyl-propyl)-phenol]
time at which the maximal increase in pressure threshold was reached (BDNF-induced allodynia; 10 mg/kg i.p.): 15 min | pressure threshold values compared to untreated healthy rats (BDNF-induced allodynia; 10 mg/kg i.p., 15-30 min after injection): return of pressure threshold values up to levels determined in untreated healthy rats | reversal of BDNF-induced allodynia, dose dependence (BDNF-induced allodynia; 3 or 10 mg/kg i.p., 7th day after intrathecal BDNF): reversed BDNF-induced allodynia in a dose-dependent manner | ATF3, IL-6, BDNF and iNOS mRNA levels in CCI-ION rats [1]: no significant effects | levels of mRNA encoding ATF3, IL-6, BDNF and iNOS versus saline-treated CCI-SN rats [2]: not significantly different | increase in pressure threshold value (CCI-SN rats; 1 mg/kg i.p., acute, first 15-30 min after injection, non significant): approximately 40% | effect on pressure threshold values (CCI-SN rats; 3 mg/kg i.p., acute): increased pressure threshold values, but to a lower extent than 10 mg/kg i.p. | anti-allodynic effect of last administration after subchronic pretreatment (sensitization/desensitization) (CCI-SN rats; 10 mg/kg i.p. twice daily for four days or saline, then 10 mg/kg i.p. on day 20): produced the same anti-allodynic effects in saline-pretreated and tapentadol-pretreated rats; also recorded: neither in CCI-SN rats nor in those with CCI-ION, any sign of sensitization or desensitization | pressure threshold values compared to healthy control values (CCI-SN rats; 10 mg/kg i.p., acute, 15-30 min after administration): no longer differed from healthy control values | mechanical allodynia compared to saline-treated CCI-SN rats (CCI-SN rats; 10 mg/kg i.p., acute, 90 min after injection): did not significantly differ from that measured in saline-treated CCI-SN rats | pressure threshold values after the last injection under subchronic treatment (CCI-SN rats; 10 mg/kg i.p., first 45 min after last injection): markedly increased pressure threshold values | dose dependence of anti-allodynic effect (CCI-SN rats; 1-10 mg/kg i.p. dose range, acute): clear dose-dependent anti-allodynic effect
